Test results reported in BigSolDB 2.1.

CSCC[C@H](NC(C)=O)C(=O)O
solubility (mole fraction)
Settings | 283.15 K | 288.15 K | 293.15 K | 298.15 K | 303.15 K | 308.15 K | 313.15 K | 318.15 K | 323.15 K
in 2-butanone | 0.0192 | 0.0243 | 0.0316 | 0.0408 | 0.0546 | 0.0764 | 0.112 | 0.135 | 0.18
in acetone | 0.0372 | 0.0524 | 0.0643 | 0.0899 | 0.118 | 0.154 | 0.195 | 0.231 | 0.283
in acetonitrile | 0.00684 | 0.00873 | 0.0119 | 0.0167 | 0.0238 | 0.0354 | 0.0549 | 0.0912 | 0.154
in dimethyl carbonate | 0.00222 | 0.00268 | 0.00369 | 0.00531 | 0.00614 | 0.00835 | 0.0109 | 0.0151 | 0.0216
in ethanol | 0.0966 | 0.121 | 0.145 | 0.163 | 0.186 | 0.222 | 0.285 | 0.343 | 0.409
in ethyl acetate | 0.00553 | 0.00645 | 0.00846 | 0.0101 | 0.0134 | 0.0169 | 0.022 | 0.0284 | 0.0399
in methyl acetate | 0.00709 | 0.00877 | 0.0113 | 0.015 | 0.0193 | 0.026 | 0.0358 | 0.052 | 0.0821
in n-butanol | 0.0531 | 0.0697 | 0.084 | 0.103 | 0.121 | 0.145 | 0.175 | 0.207 | 0.242
in n-butyl acetate | 0.00312 | 0.00346 | 0.00409 | 0.00536 | 0.00667 | 0.00833 | 0.0103 | 0.0137 | 0.0171
in n-pentanol | 0.0417 | 0.05 | 0.0609 | 0.0755 | 0.0901 | 0.113 | 0.14 | 0.167 | 0.212
in n-propanol | 0.0668 | 0.0825 | 0.099 | 0.127 | 0.158 | 0.191 | 0.237 | 0.281 | 0.327
in n-propyl acetate | 0.0037 | 0.00414 | 0.00487 | 0.00685 | 0.00834 | 0.0107 | 0.013 | 0.0171 | 0.021
